In patent US12480848B2, “Crack sensor, preparation method therefor, and application thereof in micro-force measurement” (QILU UNIVERSITY OF TECHNOLOGY (SHANDONG ACADEMY OF SCIENCES), priority 2022, dated 2025):
Like-named read-outs stand apart in the source and are kept apart here.

Tested on: cardiomyocytes (CM)
Assay: Drug evaluation: CM contractility (contractile force, beating rate) measured with the Ag/CNT-PDMS crack sensor
Conditions: for EC50: Cardiomyocyte

Question: For `CC(C)NCC(O)c1ccc(O)c(O)c1` (stereo not shown) [isoproterenol], which EC50 (read-out: apparent EC50 of CM beating rate (dose-response curve)) is on record?
Answer: 71.4 nM

Question: And the EC50 (read-out: apparent EC50 of CM contractile force (dose-response curve))?
Answer: 92.6 nM

Question: And the “contractile force and beating rate” value (concentration increased from 0.1 nM to 1 μM)?
Answer: gradually increased

Question: What about the CM contractility (when the concentration reached 100 nM) of the same compound?
Answer: became saturated
